According to patent US12310975B2, “Modulators of BCL6 proteolysis and associated methods of use” (Arvinas Operations, Inc., priority 2019, dated 2025):

Key:
BCL6 [1] = molecular target: T1, BCL6 (Homo sapiens (Human), UniProt P41182); experiment: BCL6 TR-FRET assay (BCL6-Avitag-Biotin / BCoR-Cy5 peptide); format: binding
In short: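 After 30 min room-temperature preincubation of compound titrations with 2 nM biotinylated BCL6-Avitag, 100 nM Cy5-labelled BCoR peptide plus 2 nM Eu-streptavidin were added and TR-FRET read 2 h later. HEPES pH 7.5/125 mM NaCl buffer with Triton X, glutathione (or DTT) and BSA.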

BCL6 [2] = molecular target: T1, BCL6; experiment: Immunofluorescence high content imaging of BCL6 degradation in T47D cells; format: cell-based; settings: for Dmax: T47D; for DC50: class symbols A-D, read-out: EC50 (nM)*
In short: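 T47D cells were treated for 3 days at 37 °C with 11-point 3-fold dilutions of bifunctional degrader (final top 0.1 or 1 μM). BCL6 was detected by immunofluorescence after PFA fixation, with Hoechst and cell mask counterstains, and imaged at 10×, 4 fields/well.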

[3] = class symbols A-D, read-out: IC50 (nM)***

Row | Compound | IC50 (BCL6 [1]; read-out: IC50) [nM] | Dmax (BCL6 [2]) [%] | EC50 (BCL6 [1]) [nM] | IC50 (BCL6 [2]) [nM] | further results
1 | CNC(=O)COc1cc2cc(Nc3nc(N4CCC5(CCN(CC6CCN(c7cccc8c7C(=O)N(C7CCC(=O)NC7=O)C8=O)CC6)C5)CC4)ncc3Cl)ccc2n(C(C)C)c1=O (centres unmarked) [compound 508, 2-{[6-({5-chloro-2-[2-({1-[2-(2,6-dioxopiperidin-3-yl)-1,3-dioxo-2,3-dihydro-1H-isoindol-4-yl]piperidin-4-yl}methyl)-2,8-diazaspiro[4.5]decan-8-yl]pyrimidin-4-yl}amino)-2-oxo-1-(propan-2-yl)-1,2-dihydroquinolin-3-yl]oxy}-N-methylacetamide] | < 10 | ≥ 70 |  |  | 
2 | CC(=O)COc1cc2cc(Nc3nc(C#CC4CCCN(Cc5ccc6c(c5)C(=O)N(C5CCC(=O)NC5=O)C6=O)C4)ncc3Cl)ccc2n(C)c1=O (centres unmarked) [compound 173, 5-((3-((5-chloro-4-((1-methyl-2-oxo-3-(2-oxopropoxy)-1,2-dihydroquinolin-6-yl)amino)pyrimidin-2-yl)ethynyl)piperidin-1-yl)methyl)-2-(2,6-dioxopiperidin-3-yl)isoindoline-1,3-dione] |  |  |  |  | IC50 (BCL6 [1]; [3]): ≥ 100 nM; Dmax (BCL6 [2]; maximum, class symbols A-C): < 50%; DC50 (BCL6 [2]): 10 to 50 nM
3 | CNC(=O)COc1cc2cc(Nc3nc(N4CCC5(CCN(CC6CCN(c7cccc8c7C(=O)N(C7CCC(=O)NC7=O)C8=O)CC6)CC5)CC4)ncc3Cl)ccc2n(C(C)C)c1=O (centres unmarked) [compound 533, 2-{[6-({5-chloro-2-[9-({1-[2-(2,6-dioxopiperidin-3-yl)-1,3-dioxo-2,3-dihydro-1H-isoindol-4-yl]piperidin-4-yl}methyl)-3,9-diazaspiro[5.5]undecan-3-yl]pyrimidin-4-yl}amino)-2-oxo-1-(propan-2-yl)-1,2-dihydroquinolin-3-yl]oxy}-N-methylacetamide] | < 10 | ≥ 70 |  |  | 
4 | CNC(=O)COc1cc2cc(Nc3nc(N4CCC(O[C@H]5C[C@H](N6CCN(c7cccc8c7C(=O)N(C7CCC(=O)NC7=O)C8=O)CC6)C5)CC4)ncc3Cl)ccc2n(C(C)C)c1=O (some centres unmarked) [compound 518, 2-({6-[(5-chloro-2-{4-[(1r,3r)-3-{4-[2-(2,6-dioxopiperidin-3-yl)-1,3-dioxo-2,3-dihydro-1H-isoindol-4-yl]piperazin-1-yl}cyclobutoxy]piperidin-1-yl}pyrimidin-4-yl)amino]-2-oxo-1-(propan-2-yl)-1,2-dihydroquinolin-3-yl}oxy)-N-methylacetamide] | 10 to 50 | ≥ 70 |  |  | 
5 | CNC(=O)COc1cc2cc(Nc3nc(N4CCCC(COc5ccc(C6CCN(CCC(O)c7ccc8c(c7)CN(C7CCC(=O)NC7=O)C8=O)CC6)cc5)C4)ncc3Cl)ccc2n(C)c1=O (centres unmarked) [compound 127, 2-((6-((5-chloro-2-(3-((4-(1-(3-(2-(2,6-dioxopiperidin-3-yl)-1-oxoisoindolin-5-yl)-3-hydroxypropyl)piperidin-4-yl)phenoxy)methyl)piperidin-1-yl)pyrimidin-4-yl)amino)-1-methyl-2-oxo-1,2-dihydroquinolin-3-yl)oxy)-N-methylacetamide] |  |  |  |  | IC50 (BCL6 [1]; [3]): < 10 nM; Dmax (BCL6 [2]; maximum, class symbols A-C): < 50%; DC50 (BCL6 [2]): 10 to 50 nM
6 | CNC(=O)COc1cc2cc(Nc3nc(N4CCC(CN5CCC6(CC5)CCN(c5ccc(N7CCC(=O)NC7=O)cc5)C6)CC4)ncc3Cl)ccc2n(C(C)C)c1=O [compound 497, 2-{[6-({5-chloro-2-[4-({2-[4-(2,4-dioxo-1,3-diazinan-1-yl)phenyl]-2,8-diazaspiro[4.5]decan-8-yl}methyl)piperidin-1-yl]pyrimidin-4-yl}amino)-2-oxo-1-(propan-2-yl)-1,2-dihydroquinolin-3-yl]oxy}-N-methylacetamide] | < 10 | < 50 |  |  | 
7 | CNC(=O)COc1cc2cc(Nc3nc(N4CCN(CC5CCN(c6ccc(C(=O)NC7CCC(=O)NC7=O)cc6)CC5)CC4)ncc3Cl)ccc2n(C)c1=O (centres unmarked) [compound 276, 4-[4-({4-[5-chloro-4-({1-methyl-3-[(methylcarbamoyl)methoxy]-2-oxo-1,2-dihydroquinolin-6-yl}amino)pyrimidin-2-yl]piperazin-1-yl}methyl)piperidin-1-yl]-N-(2,6-dioxopiperidin-3-yl)benzamide] |  | < 50 | < 10 | ≥ 100 | 
8 | CNC(=O)COc1cc2cc(Nc3nc(N4CCC(C5(N6CCC(c7cc(OC)cc(C(=O)NC8CCC(=O)NC8=O)c7F)CC6)CC5)CC4)ncc3Cl)ccc2n(C)c1=O (centres unmarked) [compound 480, 3-[1-(1-{1-[5-chloro-4-({1-methyl-3-[(methylcarbamoyl)methoxy]-2-oxo-1,2-dihydroquinolin-6-yl}amino)pyrimidin-2-yl]piperidin-4-yl}cyclopropyl)piperidin-4-yl]-N-(2,6-dioxopiperidin-3-yl)-2-fluoro-5-methoxybenzamide] | 10 to 50 | < 50 |  |  | 
9 | CNC(=O)COc1cc2cc(Nc3nc(N4CCN(CC5CCN(c6cnc(C(=O)NC7CCC(=O)NC7=O)cn6)CC5)CC4)ncc3Cl)ccc2n(C)c1=O (centres unmarked) [compound 281, 5-[4-({4-[5-chloro-4-({1-methyl-3-[(methylcarbamoyl)methoxy]-2-oxo-1,2-dihydroquinolin-6-yl}amino)pyrimidin-2-yl]piperazin-1-yl}methyl)piperidin-1-yl]-N-(2,6-dioxopiperidin-3-yl)pyrazine-2-carboxamide] |  | < 50 | 10 to 50 | < 10 | 

Now from value to compound, other results behind:

Row | IC50 (BCL6 [1]; read-out: IC50) [nM] | Dmax (BCL6 [2]) [%] | EC50 (BCL6 [1]) [nM] | IC50 (BCL6 [2]) [nM] | Compound | further results
10 | < 10 | 50 to 70 |  |  | CNC(=O)COc1cc2cc(Nc3nc(N4CCN(CC5CC6(CCN(c7ccc8c(c7)C(=O)N(C7CCC(=O)NC7=O)C8=O)CC6)C5)CC4)ncc3Cl)ccc2n(C(C)C)c1=O (centres unmarked) [compound 516, 2-{[6-({5-chloro-2-[4-({7-[2-(2,6-dioxopiperidin-3-yl)-1,3-dioxo-2,3-dihydro-1H-isoindol-5-yl]-7-azaspiro[3.5]nonan-2-yl}methyl)piperazin-1-yl]pyrimidin-4-yl}amino)-2-oxo-1-(propan-2-yl)-1,2-dihydroquinolin-3-yl]oxy}-N-methylacetamide] | 
11 |  | < 50 | > 100 | < 10 | CNC(=O)COc1cc2cc(Nc3nc(N4CCC(OC5CN(c6ccc7c(c6)C(=O)N(C6CCC(=O)NC6=O)C7=O)C5)CC4)ncc3Cl)ccc2n(C)c1=O (centres unmarked) [compound 227, 2-((6-((5-chloro-2-(4-((1-(2-(2,6-dioxopiperidin-3-yl)-1,3-dioxoisoindolin-5-yl)azetidin-3-yl)oxy)piperidin-1-yl)pyrimidin-4-yl)amino)-1-methyl-2-oxo-1,2-dihydroquinolin-3-yl)oxy)-N-methylacetamide] | 
12 |  |  | > 100 | ≥ 100 | CNC(=O)C1Oc2cc(Nc3nc(N4CCN(C(C)(C)C5CCN(c6ccc7c(c6)C(=O)N(C6CCC(=O)NC6=O)C7=O)CC5)CC4)ncc3Cl)ccc2N(C)C1=O (centres unmarked) [compound 274, 7-({5-chloro-2-[4-(2-{1-[2-(2,6-dioxopiperidin-3-yl)-1,3-dioxo-2,3-dihydro-1H-isoindol-5-yl]piperidin-4-yl}propan-2-yl)piperazin-1-yl]pyrimidin-4-yl}amino)-N,4-dimethyl-3-oxo-3,4-dihydro-2H-1,4-benzoxazine-2-carboxamide] | 
13 | < 10 | 50 to 70 |  |  | CNC(=O)COc1cc2cc(Nc3nc(N4CCC(CN5CC6(CCN(c7cccc8c7C(=O)N(C7CCC(=O)NC7=O)C8=O)C6)C5)CC4)ncc3Cl)ccc2n(C(C)C)c1=O (centres unmarked) [compound 501, 2-{[6-({5-chloro-2-[4-({6-[2-(2,6-dioxopiperidin-3-yl)-1,3-dioxo-2,3-dihydro-1H-isoindol-4-yl]-2,6-diazaspiro[3.4]octan-2-yl}methyl)piperidin-1-yl]pyrimidin-4-yl}amino)-2-oxo-1-(propan-2-yl)-1,2-dihydroquinolin-3-yl]oxy}-N-methylacetamide] | 
14 | < 10 | 50 to 70 |  |  | CNC(=O)COc1cc2cc(Nc3nc(N4CCC(CN5CC6(CCN(c7ccc8c(c7)C(=O)N(C7CCC(=O)NC7=O)C8=O)C6)C5)CC4)ncc3Cl)ccc2n(C(C)C)c1=O (centres unmarked) [compound 500, 2-{[6-({5-chloro-2-[4-({6-[2-(2,6-dioxopiperidin-3-yl)-1,3-dioxo-2,3-dihydro-1H-isoindol-5-yl]-2,6-diazaspiro[3.4]octan-2-yl}methyl)piperidin-1-yl]pyrimidin-4-yl}amino)-2-oxo-1-(propan-2-yl)-1,2-dihydroquinolin-3-yl]oxy}-N-methylacetamide] | 
15 | < 10 | 50 to 70 |  |  | CNC(=O)COc1cc2cc(Nc3nc(N4CCN(CC5CC6(C5)CN(c5ccc7c(c5)C(=O)N(C5CCC(=O)NC5=O)C7=O)C6)CC4)ncc3Cl)ccc2n(C(C)C)c1=O (centres unmarked) [compound 523, 2-{[6-({5-chloro-2-[4-({2-[2-(2,6-dioxopiperidin-3-yl)-1,3-dioxo-2,3-dihydro-1H-isoindol-5-yl]-2-azaspiro[3.3]heptan-6-yl}methyl)piperazin-1-yl]pyrimidin-4-yl}amino)-2-oxo-1-(propan-2-yl)-1,2-dihydroquinolin-3-yl]oxy}-N-methylacetamide] | 
16 |  | < 50 | > 100 | 50 to 100 | CNC(=O)COc1cc2cc(Nc3nc(N4CCC(CN5CCN(c6ccc7c(c6)C(=O)N(C6CCC(=O)NC6=O)C7=O)CC5)CC4)ccc3Cl)ccc2n(C)c1=O (centres unmarked) [compound 202, 2-((6-((3-chloro-6-(4-((4-(2-(2,6-dioxopiperidin-3-yl)-1,3-dioxoisoindolin-5-yl)piperazin-1-yl)methyl)piperidin-1-yl)pyridin-2-yl)amino)-1-methyl-2-oxo-1,2-dihydroquinolin-3-yl)oxy)-N-methylacetamide] | 
